Data published in patent publication US7323447B2, “Hepatitis C virus inhibitors” (Bristol-Myers Squibb Company, priority 2005, dated 2008).
Like-named read-outs stand apart in the source and are kept apart here.

How the values were obtained:
[1] = target: T1, HCV NS3/4A protease complex (BMS strain) (UniProt P27958); assay: FRET peptide assay to monitor HCV NS3/4A proteolytic activity, BMS strain; type: biochemical, Hepatitis C virus (genotype 1a); conditions: read-out: IC50 Range; HCV NS3/4A enzyme assay; Table 1
T1 construct: other: HCV NS3/4A enzyme assay; said of H77 and J4L6S; fused on or other part: Three-lysine solubilising tail at the NS4A C-terminus and a His tag from pET21b (Ni-NTA purification), for the H77 and J4L6S constructs
T1 sequence (P27958 1027-1657, one chain of several): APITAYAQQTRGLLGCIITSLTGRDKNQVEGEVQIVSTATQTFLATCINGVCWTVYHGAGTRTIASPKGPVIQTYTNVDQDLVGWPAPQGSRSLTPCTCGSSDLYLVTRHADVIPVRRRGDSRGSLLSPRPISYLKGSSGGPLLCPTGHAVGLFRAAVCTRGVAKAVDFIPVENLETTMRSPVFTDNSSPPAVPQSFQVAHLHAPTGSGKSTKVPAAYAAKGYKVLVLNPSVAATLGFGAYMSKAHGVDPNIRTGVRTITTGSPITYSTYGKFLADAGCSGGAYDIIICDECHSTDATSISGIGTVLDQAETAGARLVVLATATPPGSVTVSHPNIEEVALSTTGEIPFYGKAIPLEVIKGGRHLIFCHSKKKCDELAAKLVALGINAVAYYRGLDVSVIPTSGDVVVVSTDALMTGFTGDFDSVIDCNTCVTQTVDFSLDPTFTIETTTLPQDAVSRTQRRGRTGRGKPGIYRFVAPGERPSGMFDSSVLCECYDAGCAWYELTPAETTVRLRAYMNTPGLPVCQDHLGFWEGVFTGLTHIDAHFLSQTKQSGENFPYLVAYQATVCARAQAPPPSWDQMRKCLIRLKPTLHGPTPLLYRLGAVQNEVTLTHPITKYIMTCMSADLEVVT
Source text: HCV NS3 protease complexes, derived from the BMS strain, H77 strain or J4L6S strain, were generated, as described below. These purified recombinant proteins were generated for use in a homogeneous assay (see below) to provide an indication of how effective compounds of the present disclosure would be in inhibiting HCV NS3 proteolytic activity.
Serum from an HCV-infected patient was obtained from Dr. T. Wright, San Francisco Hospital. An engineered full-length cDNA (compliment deoxyribonucleic acid) template of the HCV genome (BMS strain) was constructed from DNA fragments obtained by reverse transcription-PCR (RT-PCR) of serum RNA (ribonucleic acid) and using primers selected on the basis of homology between other genotype 1a strains. From the determination of the entire genome sequence, a genotype 1a was assigned to the HCV isolate according to the classification of Simmonds et al. (See P Simmonds, K A Rose, S Graham, S W Chan, F McOmish, B C Dow, E A Follett, P L Yap and […] Marsden, J. Clin. Microbiol., 31(6), 1493-1503 (1993)). […] The infectious clones, H77 (1a genotype) and J4L6S (1b genotype) were obtained from R. Purcell (NIH) and the sequences are published in Genbank (AAB67036, see Yanagi, M., Purcell, R. H., Emerson, S. U. and Bukh, J. Proc. Natl. Acad. Sci. U.S.A. 94(16), 8738-8743 (1997); AF054247, see Yanagi, M., St Claire, M., Shapiro, M., Emerson, S. U., Purcell, R. H. and Bukh, J, Virology 244 (1), 161-172. (1998)).
NS3/4A protease complex-containing fractions were pooled and loaded on a desalting column Superdex-S200 pre-equilibrated with buffer D (25 mM HEPES, pH 7.5, 20% glycerol, 300 mM NaCl, 0.2% Triton X-100, 10 mM βME). Sample was loaded at a flow rate of 1 mL/min. NS3/4A protease complex-containing fractions were pooled and concentrated to approximately 0.5 mg/ml. The purity of the NS3/4A protease complexes, derived from the BMS, H77 and J4L6S strains, were judged to be greater than 90% by SDS-PAGE and mass spectrometry analyses. The enzyme was stored at −80° C., thawed on ice and diluted prior to use in assay buffer.
The purpose of this in vitro assay was to measure the inhibition of HCV NS3 protease complexes, derived from the BMS strain, H77 strain or J4L6S strain, as described above, by compounds of the present disclosure. This assay provides an indication of how effective compounds of the present disclosure would be in inhibiting HCV NS3 proteolytic activity.
In order to monitor HCV NS3/4A protease activity, an NS3/4A peptide substrate was used. The substrate was RET S1 (Resonance Energy Transfer Depsipeptide Substrate; AnaSpec, Inc. cat # 22991) (FRET peptide), described by Taliani et al. in Anal. Biochem. 240(2):60-67 (1996). The sequence of this peptide is loosely based on the NS4A/NS4B natural cleavage site for the HCV NS3 protease except there is an ester linkage rather than an amide bond at the cleavage site. The peptide also contains a fluorescence donor, EDANS, near one end of the peptide and an acceptor, DABCYL, near the other end. The fluorescence of the peptide is quenched by […] resonance energy transfer (RET) between the donor and the acceptor, but as the NS3 protease cleaves the peptide the products are released from RET quenching and the fluorescence of the donor becomes apparent.
The peptide substrate was incubated with one of the three recombinant NS3/4A protease complexes, in the absence or presence of a compound of the present disclosure. The inhibitory effects of a compound were determined by monitoring the formation of fluorescent reaction product in real time using a Cytofluor Series 4000.
Assay buffer: 50 mM HEPES, pH 7.5; 0.15 M NaCl; 0.1% Triton; 15% Glycerol; 10 mM βME. Substrate: 2 μM final concentration (from a 2 mM stock solution in DMSO stored at −20° C.). HCV NS3/4A protease type 1a (1b), 2-3 nM final concentration (from a 5 μM stock solution in 25 mM HEPES, pH 7.5, 20% glycerol, 300 mM NaCl, 0.2% Triton-X100, 10 mM βME). […]

[2] = test system: HCV replicon in HUH-7 cells; assay: HCV replicon FRET assay; type: cell-based, Hepatitis C virus (strain 1b); conditions: Table 1
Source text: An HCV replicon whole cell system was established as described by Lohmann V, Korner F, Koch J, Herian U, Theilmann L, Bartenschlager R., Science 285(5424): 110-3 (1999). This system enabled us to evaluate the effects of our HCV Protease compounds on HCV RNA replication. Briefly, using the HCV strain 1b sequence described in the Lohmann paper (Assession number: AJ238799), an HCV cDNA was synthesized by Operon Technologies, Inc. (Alameda, Calif.), and the full-length replicon was then assembled in plasmid pGem9zf(+) (Promega, Madison, Wis.) using standard molecular biology techniques. The replicon consists of (i) the HCV 5′ UTR fused to the first 12 amino acids of the capsid protein, (ii) the neomycin phosphotransferase gene (neo), (iii) the IRES from encephalomyocarditis virus (EMCV), and (iv) HCV NS3 to NS5B genes and the HCV 3′ UTR. Plasmid DNAs were linearized with ScaI and RNA transcripts were synthesized in vitro using the T7 MegaScript transcription kit (Ambion, Austin, Tex.) according to manufacturer's directions. In vitro transcripts of the cDNA were transfected into the human hepatoma cell line, HUH-7. […] Resulting cell lines were characterized for positive and negative strand RNA production and protein production over time.
The HCV replicon FRET assay was developed to monitor the inhibitory effects of compounds described in the disclosure on HCV viral replication. HUH-7 cells, constitutively expressing the HCV replicon, were grown in Dulbecco's Modified Eagle Media (DMEM) (Gibco-BRL) containing 10% Fetal calf serum (FCS) (Sigma) and 1 mg/ml G418 (Gibco-BRL). Cells were seeded the night before (1.5×10^4 cells/well) in 96-well tissue-culture sterile plates. Compound and no compound controls were prepared in DMEM containing 4% FCS, 1:100 Penicillin/Streptomysin (Gibco-BRL), 1:100 L-glutamine and 5% DMSO in the dilution plate (0.5% DMSO final concentration in the assay). Compound/DMSO mixes were added to the cells and incubated for 4 days at 37° C. After 4 days, cells were first assessed for cytotoxicity using alamar Blue (Trek Diagnotstic Systems) for a CC50 reading. The toxicity of compound (CC50) was determined by adding 1/10th volume of alamarBlue to the media incubating the cells. After 4 h, the fluorescence signal from each well was read, with an excitation wavelength at 530 nm and an emission wavelength of 580 nm, using the Cytofluor Series 4000 (Perspective Biosystems). Plates were then rinsed thoroughly with Phosphate-Buffered Saline (PBS) (3 times 150 μl). The cells were lysed with 25 μl of a lysis assay reagent containing an HCV protease substrate (5× cell Luciferase cell culture lysis reagent (Promega #E153A) diluted to 1× with distilled water, NaCl added to 150 mM final, the FRET peptide substrate (as described for the enzyme assay above) diluted to 10 μM final from a 2 mM stock in 100% DMSO. The plate was then placed into the Cytofluor 4000 instrument which had been set to 340 nm excitation/490 nm emissions, automatic mode for 21 cycles and the plate read in a kinetic mode. EC50 determinations were carried out as described for the IC50 determinations.

[3] = Hepatitis C virus, Huh-7, read-out: EC50 Range, HCV replicon cell assay
[4] = read-out: EC50 Range, HCV replicon cell assay

Compound | IC50 [1] [nM] | EC50 [2, 3] [nM] | EC50 [2, 4] [nM]
C=C[C@@H]1C[C@]1(NC(=O)[C@@H]1C[C@@H](Oc2nccc3ccccc23)CN1C(=O)[C@@H](OC(=O)Nc1ccccc1OC)C(C)(C)C)C(=O)NS(=O)(=O)C1CC1 [Example 29] | 100 to 1000 | 500 to 5000 | 
C=C[C@@H]1C[C@]1(NC(=O)[C@@H]1C[C@@H](Oc2nccc3ccccc23)CN1C(=O)[C@@H](OC(=O)Nc1ccc(F)cc1)C(C)(C)C)C(=O)NS(=O)(=O)C1CC1 [Example 30] | 100 to 1000 | 500 to 5000 | 
C=C[C@@H]1C[C@]1(NC(=O)[C@@H]1C[C@@H](Oc2nccc3ccccc23)CN1C(=O)[C@@H](OC(=O)Nc1ccc(OC)cc1)C(C)(C)C)C(=O)NS(=O)(=O)C1CC1 [Example 31] | 100 to 1000 | 500 to 5000 | 
C=C[C@@H]1C[C@]1(NC(=O)[C@@H]1C[C@@H](Oc2nccc3ccccc23)CN1C(=O)[C@@H](OC(=O)Nc1ccccc1C(C)C)C(C)(C)C)C(=O)NS(=O)(=O)C1CC1 [Example 32] | 100 to 1000 | 500 to 5000 | 
C=C[C@@H]1C[C@]1(NC(=O)[C@@H]1C[C@@H](Oc2nccc3ccccc23)CN1C(=O)[C@@H](OC(=O)Nc1ccc(C(C)(C)C)cc1)C(C)(C)C)C(=O)NS(=O)(=O)C1CC1 [Example 33] | 100 to 1000 | 500 to 5000 | 
C=C[C@@H]1C[C@]1(NC(=O)[C@@H]1C[C@@H](Oc2nccc3cc(OC)ccc23)CN1C(=O)[C@@H](O)C(C)C)C(=O)NS(=O)(=O)C1CC1 [Example 50Compound 50] | 100 to 1000 |  | 500 to 5000
C=C[C@@H]1C[C@]1(NC(=O)[C@@H]1C[C@@H](Oc2nccc3cc(OC)ccc23)CN1C(=O)[C@@H](OC(=O)NC1CCCC1)C(C)C)C(=O)NS(=O)(=O)C1CC1 [Example 51Compound 51] | < 100 |  | 500 to 5000
C=C[C@@H]1C[C@]1(NC(=O)[C@@H]1C[C@@H](Oc2nccc3cc(OC)ccc23)CN1C(=O)[C@@H](OC(=O)NC1(C(F)(F)F)CC1)C(C)C)C(=O)NS(=O)(=O)C1CC1 [Example 54Compound 54] | 100 to 1000 | 500 to 5000 | 
C=C[C@@H]1C[C@]1(NC(=O)[C@@H]1C[C@@H](Oc2cc(-c3cccs3)cc(-c3ccccc3)n2)CN1C(=O)[C@@H](OC(=O)NC(C)(C)C)C(C)(C)C)C(=O)NS(=O)(=O)C1CC1 [Example 55Compound 55] | < 100 | 500 to 5000 | 
C=C[C@@H]1C[C@]1(NC(=O)[C@@H]1C[C@@H](Oc2ncnc3ccccc23)CN1C(=O)[C@@H](OC(=O)NC(C)(C)C)C(C)(C)C)C(=O)NS(=O)(=O)C1CC1 [Example 57Compound 57] | 100 to 1000 | 500 to 5000 | 
C=C[C@@H]1C[C@]1(NC(=O)[C@@H]1C[C@@H](Oc2nccc3cc(OC)ccc23)CN1C(=O)[C@@H](OC(=O)NC(C)(C)C)C(C)(C)C)C(=O)NS(=O)(=O)N(C)C [Example 58Compound 58] | < 100 | 500 to 5000 | 
C=C[C@@H]1C[C@]1(NC(=O)[C@@H]1C[C@@H](Oc2nccc3cc(OC)ccc23)CN1C(=O)[C@@H](OC(=O)NC(C)(C)C)C(C)(C)C)C(=O)NS(=O)(=O)c1ccccc1 [Example 59Compound 59] | 100 to 1000 | 500 to 5000 | 
C=C[C@@H]1C[C@]1(NC(=O)[C@@H]1C[C@@H](Oc2nccc3cc(OC)ccc23)CN1C(=O)[C@@H](OC(=O)NC(C)(C)C)C(C)(C)C)C(=O)NS(=O)(=O)c1cn(C)cn1 [Example 60Compound 60] | > 1000 | > 5000 | 
C=C[C@@H]1C[C@]1(NC(=O)[C@@H]1C[C@@H](Oc2nc(-c3ccc(OC(F)(F)F)cc3)cc3cc(OC)ccc23)CN1C(=O)[C@@H](O)[C@@H](C)CC)C(=O)NS(=O)(=O)C1CC1 [Example 61Compound 61] | 100 to 1000 | 500 to 5000 | 
C=C[C@@H]1C[C@]1(NC(=O)[C@@H]1C[C@@H](Oc2nc(-c3ccc(OC(F)(F)F)cc3)cc3cc(OC)ccc23)CN1C(=O)[C@@H](O)C1CCCCC1)C(=O)NS(=O)(=O)C1CC1 [Example 62Compound 62] | 100 to 1000 | 500 to 5000 | 
C=C[C@@H]1C[C@]1(NC(=O)[C@@H]1C[C@@H](Oc2nc(-c3ccc(OC(F)(F)F)cc3)cc3cc(OC)ccc23)CN1C(=O)[C@@H](O)C(C)(C)COC)C(=O)NS(=O)(=O)C1CC1 [Example 63Compound 63] | < 100 | 500 to 5000 | 
